One assay has as its system DU-145. Kind of assay: Cytotoxic activity in vitro, SRB. The class given is cell-based, human. As to the method: (§1) Cytotoxic activity tests in-vitro. A measure of the cytotoxic activity of bis-acridines are the EC50 (concentration of studied compounds at which 50% inhibition of proliferation of tumorous is observed) of the evaluated compounds that inhibit the growth of 50% of cells in relation to a control. The cytotoxic activity of the compounds was determined using SRB, recommended by the US National Cancer Institute (USA). As the spectrum of 13 human origin neoplasms in bis-acridine screening studies, we used the following: HT 29 [CRC], HCT 116 [CRC], H 460 [lung cancer], MDA MB 231 [breast cancer], MCF-7 [breast cancer], UM UC3 [bladder cancer], PC 3 [prostate cancer], DU 145 [ prostate cancer], Panc-1 [pancreatic cancer], Mia Pa Ca 2 [pancreatic cancer], BXPC 3 [pancreatic cancer], AsPC1 [pancreatic cancer], Capan-2 [pancreatic cancer]. […] The DU-145 results were substantially a basis for selecting compounds and neoplasms for screening. The next neoplasms most sensitive to the cytotoxic activity of bis-acridines was the CRC HCT-116, as well as breast cancer MBA-MB-231. […] The cytotoxic activity of the remaining bis-acridines is significant or high (EC50 in the range from 1 to 0.04 μM). […] Panc-1, MiaPaCa-2 and Capan-2 are more sensitive, whereas for AsPC-1 and BxPC-3 this activity is at least an order of magnitude smaller.

Another assay concerns H-460. Kind of assay: Cytotoxic activity in vitro, SRB. In kind it is cell-based, human. As to the method:
as §1

In another assay the test system is MCF-7. Put plainly: Cytotoxic activity in vitro, SRB. The class given is cell-based, human. As to the method: as §1
A further assay deals with UM-UC-3. Put plainly: Cytotoxic activity in vitro, SRB. In kind it is cell-based, human. As to the method: as §1
In the next assay the test system is PANC 1. Put plainly: Anti-neoplasmic activity against xenograft in hairless mice. The class given is in vivo. As to the method: For this, we selected 26 bis-acridines, mainly on the basis of the cytotoxic activity. We performed 34 series of experiments evaluating the anti-neoplasmic activity on xenografts in hairless mice against eleven neoplasms of human origin from the determination of the cytotoxic activity of bis-acridines (table 4). The tumours were injected subcutaneously to hairless mice of 5-weeks, female Crl:Nu-Foxnlnu, at a rate of 5×10^6 cells per mouse. After attaining a tumour of about 100 mm^3 or 200 mm^3 in depending on the neoplasm and its take this was 8 or even 30 days, and began therapy. On the day therapy was initiated, we randomised the animals and divided them into groups. Test groups were from 6 to 8 animals, and controls had from 8 to 14 animals. Each compound was tested at three differentiated doses.
The preparations were administered intravenously (i.v.) twice weekly for 4 weeks (thrice weekly for rapidly growing neoplasms). In several series, we used intraperitoneally (i.p.) administration in the same scheme. […] The therapeutic efficacy of the tested formulations was evaluated by measuring tumour size (length and width measurements of the tumour on the basis of the calculated tumour volume). Tumours were measured twice weekly for a period of about 30 days for fast-growing neoplasms, as well as about 60 days for the slow-growing neoplasms. The tumour volume in the treated groups compared with the control group. On this basis, inhibition of tumour growth was calculated using the following formula: Tumour growth inhibition TGI [%]=100−(ΔVT/ΔVC×100) Where ΔVT—is mean the tumour volume in animals in the group treated at the given day of treatment, minus the mean tumour volume in animals at the date of commencement of therapy. ΔVC is mean tumour volume in animals in the control group on a given day of treatment minus the average tumour volume of animals on the date of commencement of therapy. The results of the tests of anti-neoplasmic activity conducted in xenografts of human-origin neoplasms in mice are shown in Table 5.
The result above was accepted only in the case that the dose administered in all animals or more than half of the animals that survived to the end of the experiment. In addition, the evaluation was the day that the administration of the preparation was already completed: for the fast-growing neoplasms (eg. HCT116) this was in the days from 15 to 26, while for slow-growing neoplasms (eg. Panc 1) on a day from 34 to 60. […] In addition, the maximum inhibition of neoplasms could be identified in the day, in which there were no factors that could change the value TGI value.
Such factors may include: a significant decrease in body weight, the appearance of observable toxaemia, excessive rate of tumour growth: tumours in excess of 2000 mm^3 and all animals alive on that day.

In the next assay the test system is HCT-116. Kind of assay: Cytotoxic activity in vitro, SRB. The class given is cell-based, human. As to the method:
as §1

In the next assay the test system is HT-29. Put plainly: Cytotoxic activity in vitro, SRB. In kind it is cell-based, human. As to the method:
as §1

Another assay concerns MiaPaCa-2. Kind of assay: Cytotoxic activity in vitro, SRB. The class given is cell-based, human. As to the method:
as §1

A further assay concerns PANC-1. Put plainly: Cytotoxic activity in vitro, SRB. The class given is cell-based, human. As to the method:
as §1

Molecules are shown by their SMILES.

The term EC50 denotes the concentration needed to bring the measured effect to its halfway point. Lower therefore signals greater potency. Regarding `CN(CCCNc1c2ccccc2nc2cccc([N+](=O)[O-])c12)CCCNc1ccc2nnn3c4ccc(O)cc4c(=O)c1c23` [C-2052, 9-{N-[(8-hydroxy-6H-[1,2,3]triazolo[4,5,1-de]-acridin-6-on-5-yl)aminopropyl]-N-methylaminopropylamino}-1′-nitroacridine], the EC50 with DU-145 was 28 nM; with H-460 it was 74 nM; in the assay with MCF-7, 220 nM; with UM-UC-3, 155 nM. The “activity against Panc-1 pancreatic cancer” value in the assay with PANC 1 (in words, scale of b125: TGI≥80% as high activity) is reported as “high level of activity”. The “TGI [%] [100 − (ΔVT/ΔVC × 100]” value with PANC 1 (series 30, i.v., single 1 mg/kg, total 8 mg/kg, day 52) came to 39%.

As for `CN(CCCNc1c2ccccc2nc2cccc([N+](=O)[O-])c12)CCCNc1ccc2nnn3c4ccccc4c(=O)c1c23` [C-2060, 9-{N-5-[(6H-[1,2,3]triazolo[4,5,1-de]-acridin-6-on-5-yl)aminopropyl]-N-methylaminopropylamino}-1′-nitroacridine], the 50% effective concentration (EC50) with DU-145 is 150 nM; in the assay with H-460, 185 nM.

As to `Cc1ccc([N+](=O)[O-])c2c(NCCCN3CCN(CCCNc4ccc5nnn6c7ccc(O)cc7c(=O)c4c56)CC3)c3ccccc3nc12` [C-2057, 1-[3-(8-hydroxy-6H-[1,2,3]triazolo[4,5,1-de]-acridin-6-on-5-yl)aminopropyl]-4-[3′-(4′-methyl-1′-nitroacridin-1-yl)-aminopropyl]piperazine], the EC50 in the assay on DU-145 turned out to be 34 nM.

In the case of `O=c1c2ccccc2n2nnc3ccc(NCCCNCCCNc4c5ccccc5nc5cccc([N+](=O)[O-])c45)c1c32` [C-2063, 9-{N-5-[(6H-[1,2,3]triazolo[4,5,1-de]-acridin-6-on-5-yl)aminopropyl]-aminopropylamino}-1′-nitroacridine], the EC50 in the assay on DU-145 amounted to 4.6 nM; in the assay on H-460 it was 24 nM.

With `Cc1ccc([N+](=O)[O-])c2c(NCCCNCCCNc3ccc([N+](=O)[O-])c4[nH]c5ccc(O)cc5c(=O)c34)c3ccccc3nc12` [C-2021, 9-{N-[(7-hydroxy-4-nitro-9(10H)acridono-1-yl)aminopropyl]-aminopropylamino}-4′-methyl-1′-nitroacridine], the EC50 in the assay with DU-145 was 78 nM; with H-460 it was 73 nM; in the assay with HCT-116, 88 nM; in the assay with HT-29, 129 nM.

With `O=c1c2ccccc2[nH]c2c([N+](=O)[O-])ccc(NCCCNCCNCCCNc3c4ccccc4nc4cccc([N+](=O)[O-])c34)c12` [C-2040, 9-[N-(4-nitro-9(10H)acridono-1-yl)-aminopropylaminoethylamino-propylamino]-1′-nitroacridine], the figures for the EC50 in the assay on DU-145, in the assay with MiaPaCa-2 and in the assay with PANC-1 were 55 nM, 46 nM and 60 nM, respectively.

Take `Cc1ccc([N+](=O)[O-])c2c(NCCCNCCNCCCNc3ccc([N+](=O)[O-])c4[nH]c5ccccc5c(=O)c34)c3ccccc3nc12` [C-2039, 9-[N-(4-nitro-9(10H)acridono-1-yl)-aminopropylaminoethylamino-propylamino]-4′-methyl-1′-nitroacridine]: the results for the EC50 in the assay on DU-145, in the assay on MiaPaCa-2 and in the assay on PANC-1 were 88 nM, 110 nM and 142 nM, respectively.

`Cc1ccc([N+](=O)[O-])c2c(NCCNCCNCCNc3ccc(C)c4[nH]c5ccccc5c(=O)c34)c3ccccc3nc12` [C-2024, 9-[N-(4-methyl-9(10H)acridono-1-yl)-aminoethylaminoethylamino-ethylamino]-4′-methyl-1′-nitroacridine]: the EC50 in the assay on DU-145 was found to be 417 nM; in the assay with H-460, 370 nM; in the assay on HCT-116 it was 1270 nM; in the assay on HT-29, 1180 nM.

`Cc1ccc([N+](=O)[O-])c2c(NCCCN(C)CCCNc3ccc4nnn5c6ccc(O)cc6c(=O)c3c45)c3ccccc3nc12` [C-2056, 9-{N-5-[(8-hydroxy-6H-[1,2,3]triazolo[4,5,1-de]-acridin-6-on-5-yl)aminopropyl]-N-methylaminopropylamino}-4′-methyl-1′-nitroacridine] gave an EC50 in the assay with DU-145 of 38 nM.

Consider `Cc1ccc([N+](=O)[O-])c2c(NCCNCCNc3ccc(C)c4[nH]c5ccccc5c(=O)c34)c3ccccc3nc12` [C-2016, 9-{N-[(4-methyl-9(10H)-acridono-1-yl)aminoethyl]ethylamino}-4′-methyl-1′-nitroacridine], for which the EC50 in the assay with DU-145 amounted to 599 nM; in the assay with HT-29, 413 nM.

Consider `Cc1ccc(NCCCNCCCNc2c3ccccc3nc3cccc([N+](=O)[O-])c23)c2c(=O)c3ccccc3[nH]c12` [C-2038, 9-{N-[(4-methyl-9(10H)-acridono-1-yl)aminopropyl]propylamino}-1′-nitroacridine], for which the EC50 with DU-145 turned out to be 184 nM; in the assay on MCF-7 it was 228 nM; in the assay with MiaPaCa-2, 280 nM; in the assay on PANC-1, 377 nM.

As for `Cc1ccc([N+](=O)[O-])c2c(NCCCN(C)CCCNc3ccc(C)c4[nH]c5ccccc5c(=O)c34)c3ccccc3nc12` [C-2023, 9-{N-[(4-methyl-9(10H)-acridono-1-yl)aminopropyl]-N-methylaminopropylamino}-4′-methyl-1′-nitroacridine], the EC50 came to 190 nM in the assay on DU-145, 71 nM in the assay with H-460, 120 nM with HCT-116 and 123 nM with HT-29.

In the case of `Cc1ccc([N+](=O)[O-])c2c(NCCCN3CCN(CCCNc4ccc([N+](=O)[O-])c5[nH]c6ccc(O)cc6c(=O)c45)CC3)c3ccccc3nc12` [C-2020], the values for the EC50 in the assay on DU-145, with H-460 and in the assay on HT-29 were 61 nM, 47 nM and 233 nM, respectively.

With `Cc1ccc([N+](=O)[O-])c2c(NCCNCCNCCNc3ccc([N+](=O)[O-])c4[nH]c5ccccc5c(=O)c34)c3ccccc3nc12` [C-2032, 9-[N-(4-nitro-9(10H)acridono-1-yl)-aminoethylaminoethylamino-ethylamino]-4′-methyl-1′-nitroacridine], the EC50 in the assay on DU-145 was found to be 1690 nM; with HCT-116, 850 nM; in the assay on PANC-1, 1310 nM; in the assay with UM-UC-3, 730 nM.

`Cc1ccc([N+](=O)[O-])c2c(NCCCN3CCN(CCCNc4ccc5nnn6c7ccccc7c(=O)c4c56)CC3)c3ccccc3nc12` [C-2058] registered an EC50 in the assay with DU-145 of 42 nM. This lies in the double-digit nanomolar range.

As for `O=c1c2cc(O)ccc2n2nnc3ccc(NCCCN4CCN(CCCNc5c6ccccc6nc6cccc([N+](=O)[O-])c56)CC4)c1c32` [C-2047, 1-[3-(8-hydroxy-6H-[1,2,3]triazolo[4,5,1-de]-acridin-6-on-5-yl)aminopropyl]-4-[3′-(1′-nitroacridin-1-yl)-aminopropyl]piperazine], the EC50 was determined as 17 nM with DU-145, 36 nM in the assay on H-460, 17 nM in the assay on HCT-116 and 29 nM in the assay on HT-29.

As to `Cc1ccc([N+](=O)[O-])c2c(NCCCN(C)CCCNc3ccc([N+](=O)[O-])c4[nH]c5ccc(O)cc5c(=O)c34)c3ccccc3nc12` [C-2019, 9-{N-[(7-hydroxy-4-nitro-9(10H)acridono-1-yl)aminopropyl]-N-methylaminopropylamino}-4′-methyl-1′-nitroacridine], the EC50 amounted to 73 nM in the assay with DU-145, 46 nM in the assay on H-460 and 200 nM with HT-29.

Source of the values: patent US10202349B2, “Asymmetric bis-acridines with antitumour activity and their uses” (POLITECHNIKA GDAŃSKA, priority 2015, dated 2019).
